Experimental data published in patent US6368831B1, “Treatment of hyperproliferative disorders” (Childrens Hospital Los Angeles, priority 1998, dated 2002).

Experiments:
Assay type in all cases: cell-based, human
[1] = system: SMS-LHN neuroblastoma cell line; assay: Ceramide assay, SMS-LHN; details: SMS-LHN (drug sensitive); 10 μM fenretinide; 20% O2
Description: (§1) The ceramide assay is carried out as follows. 500,000 neuroblastoma cells/well are replicate plated in six-well tissue culture plates and allowed to attach overnight. Tritiated (3H)-palmitic acid (a lipid precursor) is added to 1 microcure/cc and fenretinide added to a final concentration of 10 uM. Control cells receive tritiated label but no drug. At the indicated time, cells are harvested from triplicate wells, washed, and lipids extracted with methanol, acetic acid, water, and chloroform. The organic layer (containing the tritium label incorporated into lipids) is isolated and dried down by a nitrogen stream. The lipid sample is dissolved in chloroform: methanol and 10% of each sample assayed to estimate the total tritium in the lipid sample. The lipids in sample fractions, together with unlabeled ceramide standards, are then separated by thin layer chromatography and the plates developed by iodine vapor. The region of the plate corresponding to the ceramide standard is scraped and the tritium of the co-migrating sample ceramide is measured. Total sample ceramide is then expressed as percent tritium label in ceramide versus tritium in total lipid. […]

[2] = system: CHLA-90 neuroblastoma cell line; assay: Ceramide assay, CHLA-90; details: CHLA-90 (drug resistant); 10 μM fenretinide; 20% O2
Description: as §1

[3] = system: MCF7/GCS cells; assay: DIMSCAN cytotoxicity assay, MCF7/GCS tet OFF vs tet ON; details: 96 hours, P<0.005 at >6 μM HPR, safingol 0-4 μM
Source text: We have shown that HPR generates ceramide in neuroblastoma tumor cell lines in a dose- and time-depenent manner (B. Maurer et al., J. Natl. Cancer Inst. (1999)(in press)). Glucosylceramide (GC) is a nontoxic metabolite of ceramide. Ceramide is converted into glucosylceramide by the action of glucosylceramide synthase (GCS). Glucosylceramide synthase (GCS) has been transfected into human MCF7 breast cancer cells in a tetracycline-inducible expression construct in the MCF7/GCS cell line (Y. Liu et al., J. Biol. Chem. 274:1140-46 (1999)). […] We have exposed MCF7/GCS cells to HPR, safingol and HPR+safingol in the absence, and in the presence, of doxycycline.
Methods. MCF7/GCS cells were plated and incubated in RPMI medium with 10% fetal bovine serum and 200 microgram/ml Hygromycin B (tet OFF) for DIMSCAN cytotoxicity assays as previously described. To increase GCS expression, MCF7/GCS cells were also incubated in the above medium with 3 microgram/ml doxycycline (tet ON) for three days prior to replating them for DIMSCAN cytotoxicity assay. DIMSCAN assays with doxycycline-induced (tet ON) cells also included 3 microgram/ml doxycycline in the medium. Both “tet OFF” and “tet ON” MCF7/GCS cells were exposed to HPR, safingol and HPR+safingol (3:1 molar ratio) for 96 hours and assayed for survival fraction by DIMSCAN as previously described.

[4] = system: CHLA-90 cells; assay: Morphological assessment of apoptosis and necrosis (Hoechst 33342 / propidium iodide), CHLA-90
Description: Methods. To determine the manner in which 4-HPR or HPR+safingol induced cell death in neuroblastoma cells, morphological evidence of apoptosis and/or necrosis was assessed in CHLA-90 cells in the presence or absence of a specific as inhibitor of apoptosis, the neural cell-penetrant, pan-caspase enzyme inhibitor, BOC-d-fink (Enzyme Systems Products, Livermore, Calif.). […] CHLA-90 cells were plated in duplicate in whole medium in Lab Tek chamber slides (Nunc, Naperville, Ill.), allowed to attach for 24 hours, and then treated in the presence or absence of BOC-d-fink (40 μM) for one hour prior to treatment with HPR (10 μM). Control cells were treated with vehicle solvents of 0. 1% ethanol (4-HPR) and/or 0.2% DMSO (BOC-d-fink). Morphological features of apoptosis (DNA condensation and/or apoptotic bodies) were visualized in undetached cells at +24 or +48 hours using blue nuclear fluorescence induced by the supravital DNA stain Hoechst 33342 (10 μg/ml for 30 mins at 37° C.), while necrotic cells and advanced apoptotic cells were recognized by red fluorescent staining with propidium iodide (0.5 μM/ml). Red fluorescently-staining cells with condensed nuclear remnants were scored as apoptotic cells. […] Mutiple random fields of cells (of ˜100-500 cells each) were counted and photographed for viable cells, apoptotic cells, and necrotic cells. […]

Which ceramide generation [1] does the source give for CC1=C(/C=C/C(C)=C/C=C/C(C)=C/C(=O)Nc2ccc(O)cc2)C(C)(C)CCC1 [HPR, all-trans-N-(4-hydroxyphenyl)retinamide] here?
Its ceramide generation is “generate ceramide”.

And the ceramide generation [2]?
The ceramide generation was “generate ceramide”.

And the “change of cytotoxicity in tet ON (doxycycline, GCS induced) compared to tet OFF cells” value [3]?
Its value is “significantly decreased”.

What about the “morphological nuclear changes indicative of apoptosis” value ([4]; HPR 10 μM alone, relative to controls (P=0.006)) of the same compound?
The value was “induced significant apoptosis”.

And the “morphological evidence of necrosis” value ([4]; HPR 10 μM, relative to controls (P=0.002))?
Its value is “significant morphological evidence of necrosis”.
